In one series the test system is F1.Scn1a+/- mice. Nature of the series: Hyperthermia-induced seizures in F1.Scn1a+/- mouse model of Dravet syndrome. It is filed as in vivo. Further details: key to Threshold temperature of individual mice for GTCS induced by hyperthermia: core body temperature in °C at first clonic convulsion. As for the experimental part:
Hyperthermia-induced seizure experiments were conducted on male and female F1.Scn1a^+/- and F1.Scn1a^+/-;Gpr55^+/- mice at P14-16 as previously described. Briefly, a RET-3 rectal temperature probe was inserted and mice acclimated for 5 min before mouse core body temperature was elevated 0.5°C every 2 min until the onset of first clonic convulsion with loss of posture or until 42.5°C was reached. For hyperthermia-induced seizure experiments with CID2921524, mice received a single i.p. injection of vehicle or CID2921524 at an injection volume of 10 mL/kg following the 5 min acclimation period.
(§1) Normality of each dataset was assessed using the Shapiro-Wilk test. Concentrations of CID2921524 in plasma and brain at each time point were averaged and pharmacokinetic parameters were calculated by noncompartmental analysis as previously described. Seizure threshold temperatures were compared using Mantel-Cox logrank test. Spontaneous seizure data were analysed using two-way ANOVA (seizure frequency and seizure severity), Fisher’s exact test (proportion of mice seizure-free) or Mantel-Cox logrank test (survival). RT-ddPCR data were analysed using two-way ANOVA. All results p < 0.05 were considered statistically significant.

Series [1] is described as follows: Pharmacokinetic analysis in mouse plasma and brain after a single i.p. injection. It is filed as in vivo. As for the experimental part: A pharmacokinetic study was conducted for CID2921524 (MolPort; Riga, LVA) to determine the target experimental time point for the hyperthermia-induced seizure protocol. Male and female wildtype mice (P21-28) received a single intraperitoneal (i.p.) injection of 10 mg/kg CID2921524 in ethanol-Tween 80-saline (1:1:18) with an injection volume of 10 mL/kg. At selected time points, mice were anaesthetized with isoflurane and whole blood was collected via cardiac puncture. Plasma was isolated by centrifugation, whole brain was also collected and samples were stored at -80°C until assayed.
Plasma and brain samples were prepared for analysis of CID2921524 concentrations as previously described. Samples were assayed by LC-MS/MS using a Shimadzu Nexera ultra-HPLD coupled to a Shimadzu 8030 triple quadrupole mass spectrometer (Shimadzu Corp.; Kyoto, JPN) operated in positive electrospray ionization mode with multiple reaction monitoring with 376.3 > 121.1 and 376.2 > 77.0 mass transition pairs. Quantification was achieved by comparing experimental samples to standards prepared with known amounts of drug.
as §1

A further series deals with GPR55. Further details: method as in PubChem AID 2013. The conditions noted are these: image-based HTS; ref PubChem AID 2013; read-out: IC50 value as GPR55 antagonist; cited from earlier work.
Details of series [2]: method as in PMID 28973916. The note with it: cited from earlier work.
Where [3] appears, read: both sexes, brain, intraperitoneal, wildtype mice P21-28, 10 mg/kg i.p., n = 4, read-out: Brain concentration, average.
[4] abbreviates: both sexes, plasma, intraperitoneal, wildtype mice P21-28, 10 mg/kg i.p., n = 4, read-out: Plasma concentration, average.

Values joined by “and” are separate entries in the source; they are usually repeats but may differ in a detail not shown here. Equal entries are not always repeated. Where two headings read alike, the source gives them in different places.

In the case of `COc1ccc(CNCCC(c2ccccc2)c2ccc3c(c2)OCO3)cc1` (centres unmarked) [CID2921524], in the series with F1.Scn1a+/- mice (F1.Scn1a+/- mice P14-16, male and female, 10 mg/kg i.p. acute, one value per mouse, n = 12, core body temperature (°C), 10 mg/kg, in °C), the “Threshold temperature of individual mice for GTCS induced by hyperthermia” value is 41.2 and 40.3 and 40.2 and 40.8 and 41.5 and 40.7 and 38.9 and 39.9 and 41 and 40.6 and 39.6. For the same compound, the “effect on a hyperthermia-induced seizure (GTCS temperature threshold)” value in the series with F1.Scn1a+/- mice (F1.Scn1a+/- mice, 10 mg/kg i.p. vs vehicle, Mantel-Cox logrank) is “no effect”. Moreover, the brain penetrance entry in series [1] (10 mg/kg i.p.) was “brain penetrant”. The “total concentration achieved in the brain” value in series [1] (10 mg/kg i.p., free-fraction unknown) was ~ 5 μM. The Kp in series [1] (both sexes, brain and plasma, ip, 10 mg/kg i.p., read-out: brain-plasma ratio (total exposure by AUC values)) stood at 1.4. Besides, in series [1] (setting [3]), the concentration at 15 min is 1820 ng/g, the concentration at 30 min came out at 1530 ng/g, the concentration at 60 min was 1210 ng/g and the concentration at 90 min came out at 1310 ng/g. Further, the concentration at 120 min in series [1] (setting [3]) is 1550 ng/g. Moreover, in series [1] (setting [4]), the concentration at 15 min was 1960 ng/mL, the concentration at 30 min turned out to be 1420 ng/mL, the concentration at 60 min amounted to 1370 ng/mL and the concentration at 90 min turned out to be 1020 ng/mL. For the same compound, the concentration at 120 min in series [1] (setting [4]) worked out at 1090 ng/mL. Besides, the concentration at 45 min in series [1] (both sexes, plasma, intraperitoneal, wildtype mice P21-28, 10 mg/kg i.p., 45 min, n = 4) was determined as 1400 ng/mL. For the same compound, in series [1] (i.p. administration), the “absorption into plasma and brain” value was “rapidly absorbed”; the “half-lives in plasma and brain” value is on record as “relatively long half-lives”. Further, the IC50 in the series on GPR55 was 965 nM.

As to `CCOc1ccc(N(CC)C(=O)c2nn(-c3ccc(OC)cc3)c(=O)c3c2c2ccccc2n3C)cc1` [CID16020064], in series [2], the brain penetrance result is listed as “not brain penetrant”.

Broadly, the IC50 is the concentration at which inhibition is half-maximal.

The record behind these values is publication PMC9879440, “Heterozygous deletion of Gpr55 does not affect a hyperthermia-induced seizure, spontaneous seizures or survival in the Scn1a^+/^- mouse model of Dravet syndrome” (PLOS ONE, 2023).
